Earlier results in US7632656B2, “High performance liquid chromatography with an aqueous mobile phase for analysis of drug and its metabolite” (Cellseed Inc., priority 2003, dated 2009).

Details: listed with the structures of the CYP probe drugs; method not stated

SMILES | logP
CC12CCC(=O)C=C1CCC1C2CCC2(C)C(O)CCC12 (centres unmarked) [Testosterone] | 2.899
CCOc1ccc(NC(C)=O)cc1 [Phenacetin] | 0.985
